Measured values: paper PMC5762315, “Inhibition of polo-like kinase 4 (PLK4): a new therapeutic option for rhabdoid tumors and pediatric medulloblastoma” (Oncotarget, 2017)
Where “and” joins values, the source holds several entries; their conditions need not be identical. Identical values can stand only once.

How the values were obtained:
Assay in all cases: biochemical
Assay type in all cases: biochemical
various kinases [1] = target: various kinases (Homo sapiens, UniProt Q9H1R3); details: MYLK2 (skMLCK)
various kinases [2] = target: various kinases (Homo sapiens, UniProt P54753); details: EPHB3
various kinases [3] = target: various kinases (Homo sapiens, UniProt Q56UN5); details: MAP3K19 (YSK4)
various kinases [4] = target: various kinases (Homo sapiens, UniProt P00519, F317L); details: ABL1 F317L
various kinases [5] = target: various kinases (Homo sapiens, UniProt O75914); details: PAK3
various kinases [6] = target: various kinases (Homo sapiens, UniProt P49761); details: CLK3
various kinases [7] = target: various kinases (Homo sapiens, UniProt Q8N568); details: DCAMKL2 (DCK2)
various kinases [8] = target: various kinases (Homo sapiens, UniProt P49137); details: MAPKAPK2
various kinases [9] = target: various kinases (Homo sapiens, UniProt Q12851); details: MAP4K2 (GCK)
various kinases [10] = target: various kinases (Homo sapiens, UniProt P10721, V560G); details: KIT V560G
various kinases [11] = target: various kinases (Homo sapiens, UniProt P49840); details: GSK3A (GSK3 alpha)
various kinases [12] = target: various kinases (Homo sapiens, UniProt P09619); details: PDGFRB (PDGFR beta)
various kinases [13] = target: various kinases (Homo sapiens, UniProt P00533, L858R/T790M); details: EGFR (ErbB1) T790M L858R
Sequence of various kinases (Homo sapiens, UniProt P00533, L858R/T790M) (P00533 25-1210 T790M/L858R): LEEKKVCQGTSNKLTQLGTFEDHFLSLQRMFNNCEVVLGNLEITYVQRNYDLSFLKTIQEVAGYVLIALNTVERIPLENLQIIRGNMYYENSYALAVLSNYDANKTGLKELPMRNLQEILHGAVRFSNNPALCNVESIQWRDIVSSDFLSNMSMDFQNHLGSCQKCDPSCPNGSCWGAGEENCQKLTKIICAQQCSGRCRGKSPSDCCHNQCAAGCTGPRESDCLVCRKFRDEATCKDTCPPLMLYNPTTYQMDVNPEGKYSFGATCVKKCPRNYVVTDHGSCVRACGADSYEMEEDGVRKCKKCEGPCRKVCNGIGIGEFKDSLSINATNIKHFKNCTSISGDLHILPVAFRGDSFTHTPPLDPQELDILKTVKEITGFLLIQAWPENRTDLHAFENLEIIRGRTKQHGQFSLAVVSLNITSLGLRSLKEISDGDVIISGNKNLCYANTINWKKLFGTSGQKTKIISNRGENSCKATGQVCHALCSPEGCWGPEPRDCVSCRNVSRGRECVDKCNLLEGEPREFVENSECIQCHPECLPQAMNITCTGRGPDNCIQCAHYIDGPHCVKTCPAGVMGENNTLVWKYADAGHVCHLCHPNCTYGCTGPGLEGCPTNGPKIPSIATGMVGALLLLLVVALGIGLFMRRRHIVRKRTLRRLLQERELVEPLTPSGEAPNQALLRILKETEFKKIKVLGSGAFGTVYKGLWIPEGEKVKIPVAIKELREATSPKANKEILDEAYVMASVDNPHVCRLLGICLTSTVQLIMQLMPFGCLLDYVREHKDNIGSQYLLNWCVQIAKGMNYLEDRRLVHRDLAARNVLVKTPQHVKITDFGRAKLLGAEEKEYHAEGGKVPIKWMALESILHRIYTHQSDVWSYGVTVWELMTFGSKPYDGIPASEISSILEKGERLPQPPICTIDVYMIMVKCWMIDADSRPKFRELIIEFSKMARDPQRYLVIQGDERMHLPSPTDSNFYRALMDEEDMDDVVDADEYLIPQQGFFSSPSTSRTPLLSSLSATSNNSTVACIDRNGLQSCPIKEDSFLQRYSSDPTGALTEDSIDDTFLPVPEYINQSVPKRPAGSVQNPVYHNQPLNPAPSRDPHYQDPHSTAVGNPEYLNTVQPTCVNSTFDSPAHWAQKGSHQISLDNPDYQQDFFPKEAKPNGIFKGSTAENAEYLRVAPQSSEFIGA

various kinases [14] = target: various kinases (Homo sapiens, UniProt P07949, Y791F); details: kinase RET Y791F; ZLYTE
Sequence of various kinases (Homo sapiens, UniProt P07949, Y791F) (P07949 29-1114 Y791F): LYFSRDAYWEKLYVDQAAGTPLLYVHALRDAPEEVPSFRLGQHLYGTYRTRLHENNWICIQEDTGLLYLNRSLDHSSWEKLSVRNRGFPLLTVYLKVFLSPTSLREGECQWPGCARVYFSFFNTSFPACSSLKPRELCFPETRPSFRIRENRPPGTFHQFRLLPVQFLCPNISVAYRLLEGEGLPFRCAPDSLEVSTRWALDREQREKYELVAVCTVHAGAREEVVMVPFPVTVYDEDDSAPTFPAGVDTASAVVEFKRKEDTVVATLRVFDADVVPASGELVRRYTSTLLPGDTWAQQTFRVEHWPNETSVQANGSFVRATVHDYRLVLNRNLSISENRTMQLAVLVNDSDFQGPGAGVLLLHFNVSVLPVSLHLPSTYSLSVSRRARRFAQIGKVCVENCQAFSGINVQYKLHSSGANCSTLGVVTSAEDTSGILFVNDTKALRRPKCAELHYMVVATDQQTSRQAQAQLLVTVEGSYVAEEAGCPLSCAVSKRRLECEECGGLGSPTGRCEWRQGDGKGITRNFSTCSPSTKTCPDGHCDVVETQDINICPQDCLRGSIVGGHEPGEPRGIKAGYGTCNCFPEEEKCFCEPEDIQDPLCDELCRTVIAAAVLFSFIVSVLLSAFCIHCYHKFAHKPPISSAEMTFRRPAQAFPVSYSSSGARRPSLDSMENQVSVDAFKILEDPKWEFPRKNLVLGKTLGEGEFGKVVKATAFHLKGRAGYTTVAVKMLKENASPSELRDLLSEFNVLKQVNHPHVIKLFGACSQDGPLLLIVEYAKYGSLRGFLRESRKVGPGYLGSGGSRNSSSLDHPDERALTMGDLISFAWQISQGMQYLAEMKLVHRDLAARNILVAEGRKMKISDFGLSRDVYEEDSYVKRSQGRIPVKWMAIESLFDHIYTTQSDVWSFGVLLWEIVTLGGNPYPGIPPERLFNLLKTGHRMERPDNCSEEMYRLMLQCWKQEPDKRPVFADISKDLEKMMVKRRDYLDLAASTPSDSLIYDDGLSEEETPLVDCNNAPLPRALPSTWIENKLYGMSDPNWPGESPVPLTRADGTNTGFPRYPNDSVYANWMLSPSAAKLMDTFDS

various kinases [15] = target: various kinases (Homo sapiens, UniProt P00533, L858R); details: EGFR (ErbB1) L858R
Sequence of various kinases (Homo sapiens, UniProt P00533, L858R) (P00533 25-1210 L858R): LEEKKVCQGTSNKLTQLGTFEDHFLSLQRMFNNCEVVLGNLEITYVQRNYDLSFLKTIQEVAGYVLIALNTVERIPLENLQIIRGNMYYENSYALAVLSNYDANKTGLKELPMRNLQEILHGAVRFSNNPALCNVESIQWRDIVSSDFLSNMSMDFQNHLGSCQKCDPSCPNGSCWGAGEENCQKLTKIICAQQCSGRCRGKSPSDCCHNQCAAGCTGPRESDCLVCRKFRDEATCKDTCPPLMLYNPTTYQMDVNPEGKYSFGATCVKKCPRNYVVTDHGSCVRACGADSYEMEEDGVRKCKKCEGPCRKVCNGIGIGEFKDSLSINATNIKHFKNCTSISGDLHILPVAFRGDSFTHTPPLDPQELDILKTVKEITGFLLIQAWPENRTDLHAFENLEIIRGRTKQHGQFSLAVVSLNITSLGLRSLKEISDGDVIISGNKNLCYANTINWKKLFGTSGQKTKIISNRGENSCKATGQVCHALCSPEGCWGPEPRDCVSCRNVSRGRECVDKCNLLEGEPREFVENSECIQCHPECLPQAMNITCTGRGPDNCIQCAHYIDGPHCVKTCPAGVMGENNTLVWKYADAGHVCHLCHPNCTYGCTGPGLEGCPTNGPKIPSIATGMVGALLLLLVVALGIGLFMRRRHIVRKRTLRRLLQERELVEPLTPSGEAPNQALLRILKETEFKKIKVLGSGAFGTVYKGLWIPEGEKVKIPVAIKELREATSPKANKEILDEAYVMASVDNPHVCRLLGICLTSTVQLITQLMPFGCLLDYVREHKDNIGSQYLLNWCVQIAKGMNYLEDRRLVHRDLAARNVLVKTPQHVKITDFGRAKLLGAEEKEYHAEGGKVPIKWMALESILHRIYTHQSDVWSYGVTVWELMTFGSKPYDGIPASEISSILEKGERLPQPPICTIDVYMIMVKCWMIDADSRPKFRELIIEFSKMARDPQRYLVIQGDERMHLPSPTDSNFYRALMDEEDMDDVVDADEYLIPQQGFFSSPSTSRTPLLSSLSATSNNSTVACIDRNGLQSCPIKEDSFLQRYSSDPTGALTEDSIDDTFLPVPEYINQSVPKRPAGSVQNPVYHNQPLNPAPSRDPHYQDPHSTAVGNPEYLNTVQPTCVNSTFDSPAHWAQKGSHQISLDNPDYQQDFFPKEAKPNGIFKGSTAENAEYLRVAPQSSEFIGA

various kinases [16] = target: various kinases (Homo sapiens, UniProt Q13557); details: CAMK2D (CaMKII delta)
various kinases [17] = target: various kinases (Homo sapiens, UniProt P07949, V804E); details: kinase RET V804E; ZLYTE
Sequence of various kinases (Homo sapiens, UniProt P07949, V804E) (P07949 29-1114 V804E): as the sequence (P07949 29-1114 Y791F) above, with F763Y, V776E counted along it

various kinases [18] = target: various kinases (Homo sapiens, UniProt P07332); details: FES (FPS)
various kinases [19] = target: various kinases (Homo sapiens, UniProt Q9P286); details: PAK7 (KIAA1264)
various kinases [20] = target: T1, various kinases (Homo sapiens, UniProt Q9BZL6); details: kinase PRKD2 (PKD2); ZLYTE
T1 sequence (Q9BZL6 1-878): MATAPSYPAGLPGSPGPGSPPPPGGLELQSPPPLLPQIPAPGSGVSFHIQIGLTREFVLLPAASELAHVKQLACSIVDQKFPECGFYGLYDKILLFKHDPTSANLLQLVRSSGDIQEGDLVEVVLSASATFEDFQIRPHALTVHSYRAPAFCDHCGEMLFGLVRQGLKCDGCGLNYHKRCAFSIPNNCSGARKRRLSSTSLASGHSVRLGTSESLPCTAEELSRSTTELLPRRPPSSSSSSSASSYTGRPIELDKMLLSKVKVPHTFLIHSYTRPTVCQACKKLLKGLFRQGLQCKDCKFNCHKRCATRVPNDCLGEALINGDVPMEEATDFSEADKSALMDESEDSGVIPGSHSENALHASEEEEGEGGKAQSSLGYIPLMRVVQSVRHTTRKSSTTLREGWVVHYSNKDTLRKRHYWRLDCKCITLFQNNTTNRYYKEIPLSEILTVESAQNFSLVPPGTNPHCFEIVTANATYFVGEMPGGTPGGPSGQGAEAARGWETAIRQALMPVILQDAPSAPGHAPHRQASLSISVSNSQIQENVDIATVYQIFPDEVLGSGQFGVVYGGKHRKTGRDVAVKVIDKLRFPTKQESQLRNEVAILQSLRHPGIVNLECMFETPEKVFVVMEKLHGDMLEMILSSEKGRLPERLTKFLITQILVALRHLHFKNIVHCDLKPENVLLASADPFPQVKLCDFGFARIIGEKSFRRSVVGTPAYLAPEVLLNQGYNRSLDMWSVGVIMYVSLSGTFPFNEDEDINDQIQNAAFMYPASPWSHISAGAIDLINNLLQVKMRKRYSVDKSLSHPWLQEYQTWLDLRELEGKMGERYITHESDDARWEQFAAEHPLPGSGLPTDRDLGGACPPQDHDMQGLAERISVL

various kinases [21] = target: various kinases (Homo sapiens, UniProt P54646)
Sequence of various kinases (Homo sapiens, UniProt P54646) (P54646 whole entry): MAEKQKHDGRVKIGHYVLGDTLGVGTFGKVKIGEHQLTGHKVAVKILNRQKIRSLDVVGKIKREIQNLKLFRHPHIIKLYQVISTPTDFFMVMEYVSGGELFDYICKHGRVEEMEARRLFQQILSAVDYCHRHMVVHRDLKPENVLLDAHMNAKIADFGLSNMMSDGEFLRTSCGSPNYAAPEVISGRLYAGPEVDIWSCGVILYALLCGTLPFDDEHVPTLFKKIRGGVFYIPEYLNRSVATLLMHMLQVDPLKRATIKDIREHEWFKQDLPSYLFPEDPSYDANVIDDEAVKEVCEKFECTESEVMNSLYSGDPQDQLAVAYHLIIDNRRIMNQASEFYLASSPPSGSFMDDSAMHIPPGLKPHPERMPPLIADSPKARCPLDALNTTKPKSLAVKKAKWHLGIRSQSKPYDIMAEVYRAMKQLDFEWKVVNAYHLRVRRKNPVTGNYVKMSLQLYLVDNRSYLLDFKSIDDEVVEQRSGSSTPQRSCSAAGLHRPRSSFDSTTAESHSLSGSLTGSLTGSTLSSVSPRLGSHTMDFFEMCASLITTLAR

various kinases [22] = target: various kinases (Homo sapiens, UniProt Q14164); details: IKBKE (IKK epsilon)
various kinases [23] = target: various kinases (Homo sapiens, UniProt Q8TDX7); details: NEK7
various kinases [24] = target: various kinases (Homo sapiens, UniProt P42345); details: FRAP1 (mTOR)
various kinases [25] = target: various kinases (Homo sapiens, UniProt Q9H0K1); details: kinase SNF1LK2; ZLYTE
Sequence of various kinases (Homo sapiens, UniProt Q9H0K1) (Q9H0K1 whole entry): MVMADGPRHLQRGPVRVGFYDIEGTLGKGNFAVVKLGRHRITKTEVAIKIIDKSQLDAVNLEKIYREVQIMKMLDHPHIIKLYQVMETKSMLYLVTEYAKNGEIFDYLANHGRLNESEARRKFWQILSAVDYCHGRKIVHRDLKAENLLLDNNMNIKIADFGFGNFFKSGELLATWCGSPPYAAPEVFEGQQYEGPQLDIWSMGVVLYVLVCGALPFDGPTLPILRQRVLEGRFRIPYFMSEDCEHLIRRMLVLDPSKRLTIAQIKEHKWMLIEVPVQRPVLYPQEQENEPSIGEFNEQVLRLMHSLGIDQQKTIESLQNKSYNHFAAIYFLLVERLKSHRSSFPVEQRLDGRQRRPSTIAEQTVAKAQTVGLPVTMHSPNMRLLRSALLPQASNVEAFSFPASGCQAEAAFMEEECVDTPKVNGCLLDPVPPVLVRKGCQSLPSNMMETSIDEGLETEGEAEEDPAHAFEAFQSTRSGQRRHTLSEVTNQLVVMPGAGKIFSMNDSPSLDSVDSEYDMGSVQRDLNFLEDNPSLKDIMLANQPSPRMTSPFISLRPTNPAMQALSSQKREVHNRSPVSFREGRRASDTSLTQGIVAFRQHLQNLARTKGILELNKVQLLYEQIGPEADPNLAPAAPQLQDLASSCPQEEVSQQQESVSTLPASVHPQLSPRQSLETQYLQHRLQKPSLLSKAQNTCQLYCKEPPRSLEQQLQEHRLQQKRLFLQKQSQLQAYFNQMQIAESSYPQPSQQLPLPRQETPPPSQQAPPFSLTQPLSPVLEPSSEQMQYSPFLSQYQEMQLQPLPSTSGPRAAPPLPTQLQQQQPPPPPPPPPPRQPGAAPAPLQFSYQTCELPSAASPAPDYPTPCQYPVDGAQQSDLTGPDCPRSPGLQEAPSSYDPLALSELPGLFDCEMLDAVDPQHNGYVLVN

various kinases [26] = target: various kinases (Homo sapiens, UniProt P15056, V600E); details: BRAF V599E

COc1ccc2c(c1)[C@]1(C[C@H]1c1ccc3c(/C=C/c4ccc(CN5C[C@@H](C)O[C@@H](C)C5)cc4)n[nH]c3c1)C(=O)N2 [CFI-400945]
% Inhibition (various kinases [1]): 6% and 7% | % Inhibition (various kinases [2]): 3% and 2% | % Inhibition (various kinases [3]): 7% and 4% | % Inhibition (various kinases [4]): 13% and 16% | % Inhibition (various kinases [5]): 11% and 5% | % Inhibition (various kinases [6]): 2% and 0% | % Inhibition (various kinases [7]): -7% and -1% | % Inhibition (various kinases [8]): 15% and 12% | % Inhibition (various kinases [9]): 43% and 39% | % Inhibition (various kinases [10]): 11% and 7% | % Inhibition (various kinases [11]): 3% and 4% | % Inhibition (various kinases [12]): 3% and 4% | % Inhibition (various kinases [13]): 5% and 4% | % Inhibition Average (various kinases [14]): 14% | % Inhibition Duplicate #1 (various kinases [14]): 13% | % Inhibition Duplicate #2 (various kinases [14]): 14% | % Inhibition (various kinases [15]): 1% and 2% | % Inhibition (various kinases [16]): 28% and 37% | % Inhibition Average (various kinases [17]): 0% | % Inhibition Duplicate #1 (various kinases [17]): 0% | % Inhibition Duplicate #2 (various kinases [17]): 0% | % Inhibition (various kinases [18]): 13% and 10% | % Inhibition (various kinases [19]): 9% and 13% | % Inhibition Average (various kinases [20]): 2% | % Inhibition Duplicate #1 (various kinases [20]): 0% | % Inhibition Duplicate #2 (various kinases [20]): 4% | % Inhibition (various kinases [21]; AMPK (A2/B1/G2)): 27% and 22% | % Inhibition (various kinases [21]; AMPK (A2/B1/G3)): 9% and 15% | % Inhibition (various kinases [21]; AMPK (A2/B2/G3)): 9% and 10% | % Inhibition (various kinases [21]; AMPK A2/B1/G1): 5% and 6% | % Inhibition (various kinases [22]): -1% and 1% | % Inhibition (various kinases [23]): 0% and 6% | % Inhibition (various kinases [24]): 2% and 5% | % Inhibition Average (various kinases [25]): 5% | % Inhibition Duplicate #1 (various kinases [25]): 4% | % Inhibition Duplicate #2 (various kinases [25]): 5% | % Inhibition (various kinases [26]): 12%
